Measurements taken from PubChem BioAssay AID328 (DTP/NCI, 2004).
Several values for one entry are separate records, joined by “and”; a condition that tells them apart may be missing. Equal values may be shown once. Toxic doses and inconclusive results are not listed.

Test system: BDF1 mice, P388 leukemia ip, median survival T/C
Assay: NCI In Vivo Anticancer Drug Screen. Data for tumor model P388 Leukemia (intraperitoneal) in B6D2F1 (BDF1) mice
Settings: endpoint: median survival time, higher = longer survival
Summary of the method: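 Reported as T/C, where T is the survival measurement in dosed animals and C the same measurement in vehicle controls.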

[1] = dose: 25.0 mg/kg/injection, schedule: Q01DX009 (ip), vehicle: saline
[2] = dose: 50.0 mg/kg/injection, schedule: Q04DX003 (ip), vehicle: Klucel (hydroxypropylcellulose) (HPC)
[3] = dose: 100.0 mg/kg/injection, schedule: Q04DX003 (ip), vehicle: Klucel (hydroxypropylcellulose) (HPC)
[4] = dose: 100.0 mg/kg/injection, schedule: Q04DX003 (ip), vehicle: saline with Tween-80
[5] = dose: 200.0 mg/kg/injection, schedule: Q04DX003 (ip), vehicle: saline with Tween-80
[6] = dose: 400.0 mg/kg/injection, schedule: Q04DX003 (ip), vehicle: saline with Tween-80
[7] = dose: 50.0 mg/kg/injection, schedule: Q01DX005 (ip), vehicle: saline with Tween-80
[8] = dose: 100.0 mg/kg/injection, schedule: Q01DX005 (ip), vehicle: saline with Tween-80
[9] = dose: 200.0 mg/kg/injection, schedule: Q01DX005 (ip), vehicle: saline with Tween-80
[10] = dose: 100.0 mg/kg/injection, schedule: Q01DX009 (ip), vehicle: Klucel (hydroxypropylcellulose) (HPC)
[11] = dose: 200.0 mg/kg/injection, schedule: Q01DX009 (ip), vehicle: Klucel (hydroxypropylcellulose) (HPC)
[12] = dose: 200.0 mg/kg/injection, schedule: Q04DX003 (ip), vehicle: Klucel (hydroxypropylcellulose) (HPC)
[13] = dose: 400.0 mg/kg/injection, schedule: Q01DX009 (ip), vehicle: Klucel (hydroxypropylcellulose) (HPC)
[14] = dose: 400.0 mg/kg/injection, schedule: Q04DX003 (ip), vehicle: Klucel (hydroxypropylcellulose) (HPC)
[15] = dose: 50.0 mg/kg/injection, schedule: Q04DX003 (ip), vehicle: saline
[16] = dose: 100.0 mg/kg/injection, schedule: Q04DX003 (ip), vehicle: saline
[17] = dose: 200.0 mg/kg/injection, schedule: Q04DX003 (ip), vehicle: saline
[18] = dose: 100.0 mg/kg/injection, schedule: Q01DX009 (ip), vehicle: saline with Tween-80
[19] = dose: 200.0 mg/kg/injection, schedule: Q01DX009 (ip), vehicle: saline with Tween-80
[20] = dose: 400.0 mg/kg/injection, schedule: Q01DX009 (ip), vehicle: saline with Tween-80
[21] = dose: 50.0 mg/kg/injection, schedule: Q01DX009 (ip), vehicle: saline
[22] = dose: 200.0 mg/kg/injection, schedule: Q01DX009 (ip), vehicle: saline
[23] = dose: 400.0 mg/kg/injection, schedule: Q01DX009 (ip), vehicle: saline
[24] = dose: 400.0 mg/kg/injection, schedule: Q04DX003 (ip), vehicle: saline
[25] = dose: 100.0 mg/kg/injection, schedule: Q01DX009 (ip), vehicle: saline
[26] = dose: 50.0 mg/kg/injection, schedule: Q01DX009 (ip), vehicle: saline with Tween-80

## Nc1cc(NC(=O)c2ccc(Cl)cc2)ccc1S(=O)(=O)O
dose: 3.12 mg/kg/injection, schedule: Q01DX009 (ip), vehicle: saline
  T/C: 117 % of control
dose: 6.25 mg/kg/injection, schedule: Q01DX009 (ip), vehicle: saline
  T/C: 99 % of control
dose: 6.25 mg/kg/injection, schedule: Q04DX003 (ip), vehicle: Klucel (hydroxypropylcellulose) (HPC)
  T/C: 95 % of control
dose: 12.5 mg/kg/injection, schedule: Q01DX009 (ip), vehicle: saline
  T/C: 90 % of control
dose: 12.5 mg/kg/injection, schedule: Q04DX003 (ip), vehicle: Klucel (hydroxypropylcellulose) (HPC)
  T/C: 106 % of control
[1]
  T/C: 87 % of control
dose: 25.0 mg/kg/injection, schedule: Q04DX003 (ip), vehicle: Klucel (hydroxypropylcellulose) (HPC)
  T/C: 93 % of control
[2]
  T/C: 98 % of control
[3]
  T/C: 97 % of control

## [Cl][Rh][Cl].[NH-]c1ccc(S(=O)(=O)Nc2ccccn2)cc1.[NH-]c1ccc(S(=O)(=O)Nc2ccccn2)cc1.[NH-]c1ccc(S(=O)(=O)Nc2ccccn2)cc1.[NH-]c1ccc(S(=O)(=O)Nc2ccccn2)cc1
[4]
  T/C: 108 % of control
[5]
  T/C: 94 % of control
[6]
  T/C: 91 % of control

## CCC(C)C(O)C(C(=O)O)C1CCCCC1 (configuration not stated)
[7]
  T/C: 100 % of control
[8]
  T/C: 95 % of control
[9]
  T/C: 86 % of control

## CCOC(=O)C(C#N)(CC)C1=CCCCC1 (configuration not stated)
[10]
  T/C: 108 % of control
[3]
  T/C: 109 % of control
[11]
  T/C: 100 % of control
[12]
  T/C: 100 % of control
[13]
  T/C: 104 % of control
[14]
  T/C: 122 % of control

## O=C(CBr)OCCCS(=O)(=O)O
[15]
  T/C: 95 % of control
[16]
  T/C: 104 % of control
[17]
  T/C: 100 % of control

## Oc1c(CN2CCOCC2)cc(CN2CCOCC2)cc1CN1CCOCC1
[18]
  T/C: 91 % of control
[19]
  T/C: 86 % of control
[20]
  T/C: 100 % of control

## O=C1OC(=O)C2C3C=CC(C4C=CC43)C12 (configuration not stated)
dose: 12.5 mg/kg/injection, schedule: Q04DX003 (ip), vehicle: saline
  T/C: 101 % of control
[1]
  T/C: 97 % of control
dose: 25.0 mg/kg/injection, schedule: Q04DX003 (ip), vehicle: saline
  T/C: 104 % of control
[21]
  T/C: 97 % of control
[15]
  T/C: 111 % of control and 124 % of control
[16]
  T/C: 92 % of control and 106 % of control
[22]
  T/C: 86 % of control
[17]
  T/C: 111 % of control and 119 % of control
[23]
  T/C: 100 % of control
[24]
  T/C: 109 % of control

## CCOCCc1ccccn1
[25]
  T/C: 100 % of control
[22]
  T/C: 104 % of control
[23]
  T/C: 122 % of control

## O=c1oc2ccc(Cl)cc2n1Cc1ccc(Cl)cc1
[7]
  T/C: 99 % of control
[8]
  T/C: 92 % of control
[9]
  T/C: 92 % of control

## N#C[C@@H]1C2C=CC(CC2)[C@H]1C#N
dose: 0.29 mg/kg/injection, schedule: Q04DX003 (ip), vehicle: saline
  T/C: 95 % of control
dose: 0.44 mg/kg/injection, schedule: Q04DX003 (ip), vehicle: saline
  T/C: 120 % of control
dose: 0.66 mg/kg/injection, schedule: Q04DX003 (ip), vehicle: saline
  T/C: 100 % of control
dose: 1.0 mg/kg/injection, schedule: Q04DX003 (ip), vehicle: saline
  T/C: 115 % of control
dose: 1.5 mg/kg/injection, schedule: Q04DX003 (ip), vehicle: saline
  T/C: 100 % of control
dose: 5.0 mg/kg/injection, schedule: Q04DX003 (ip), vehicle: saline with Tween-80
  T/C: 100 % of control

## O=c1ccc2nccc3c4ccccc4n1c23
dose: 100.0 mg/kg/injection, schedule: Q01DX001 (ip), vehicle: saline sonified
  T/C: 100 % of control
dose: 200.0 mg/kg/injection, schedule: Q01DX001 (ip), vehicle: saline sonified
  T/C: 100 % of control
dose: 400.0 mg/kg/injection, schedule: Q01DX001 (ip), vehicle: saline sonified
  T/C: 100 % of control

## CC(=O)OCC(=O)[C@@]1(O)CC[C@H]2[C@@H]3C[C@H](C)C4=CC(=O)C=C[C@]4(C)[C@H]3[C@@H](O)C[C@@]21C
[4]
  T/C: 104 % of control
[5]
  T/C: 104 % of control
[6]
  T/C: 100 % of control

## CCOC1(c2ccccc2)c2cc(Cl)ccc2NC(=O)N1CC (configuration not stated)
[26]
  T/C: 101 % of control
[18]
  T/C: 98 % of control
[19]
  T/C: 94 % of control

## CCCCc1ccc(N2C(N)=NC(N)=NC2(C)C)cc1
dose: 6.25 mg/kg/injection, schedule: Q01DX005 (ip), vehicle: Klucel (hydroxypropylcellulose) (HPC)
  T/C: 111 % of control
dose: 12.5 mg/kg/injection, schedule: Q01DX005 (ip), vehicle: Klucel (hydroxypropylcellulose) (HPC)
  T/C: 110 % of control

## CCCCN(CCCC)CC(C)O (configuration not stated)
dose: 25.0 mg/kg/injection, schedule: Q04DX003 (ip), vehicle: saline with Tween-80
  T/C: 100 % of control
dose: 50.0 mg/kg/injection, schedule: Q04DX003 (ip), vehicle: saline with Tween-80
  T/C: 104 % of control
[4]
  T/C: 100 % of control

## O=C(O)c1ccccc1C(=O)Nc1ccc([N+](=O)[O-])cc1Cl
[2]
  T/C: 100 % of control
[3]
  T/C: 100 % of control
[12]
  T/C: 95 % of control

## O=C(O)CNC(=O)CCl
dose: 25.0 mg/kg/injection, schedule: Q01DX009 (ip), vehicle: Klucel (hydroxypropylcellulose) (HPC)
  T/C: 110 % of control
dose: 50.0 mg/kg/injection, schedule: Q01DX009 (ip), vehicle: Klucel (hydroxypropylcellulose) (HPC)
  T/C: 120 % of control
[10]
  T/C: 120 % of control
dose: 225.0 mg/kg/injection, schedule: Q01DX009 (ip), vehicle: Klucel (hydroxypropylcellulose) (HPC)
  T/C: 86 % of control

## Cc1cc(Cl)ccc1NC(=O)N1c2ccccc2SC12CCCC2
[26]
  T/C: 97 % of control
[18]
  T/C: 91 % of control
[19]
  T/C: 104 % of control

## CCOC(=O)c1ccc(OC(=O)Nc2ccccc2OC)cc1
[4]
  T/C: 91 % of control
[5]
  T/C: 108 % of control
[6]
  T/C: 108 % of control

## CN(Cc1cnc2nc(N)nc(N)c2n1)c1c(Cl)cc(C(=O)NC(CCC(=O)O)C(=O)O)cc1Br (configuration not stated)
dose: 0.13 mg/kg/injection, schedule: Q04DX003 (ip), vehicle: saline
  T/C: 108 % of control
dose: 0.19 mg/kg/injection, schedule: Q04DX003 (ip), vehicle: saline
  T/C: 116 % of control
dose: 1.1 mg/kg/injection, schedule: Q04DX003 (ip), vehicle: saline
  T/C: 150 % of control
dose: 6.3 mg/kg/injection, schedule: Q04DX003 (ip), vehicle: saline
  T/C: 150 % of control
[1]
  T/C: 213 % of control
[21]
  T/C: 261 % of control
[18]
  T/C: 173 % of control
[25]
  T/C: 271 % of control
dose: 115.0 mg/kg/injection, schedule: Q04DX003 (ip), vehicle: saline
  T/C: 236 % of control
dose: 175.0 mg/kg/injection, schedule: Q04DX003 (ip), vehicle: saline
  T/C: 272 % of control
[19]
  T/C: 182 % of control
dose: 264.0 mg/kg/injection, schedule: Q04DX003 (ip), vehicle: saline
  T/C: 254 % of control
[24]
  T/C: 272 % of control
dose: 600.0 mg/kg/injection, schedule: Q04DX003 (ip), vehicle: saline
  T/C: 90 % of control

## C=CCc1ccc(OCCOC(=O)Nc2cccc(SC)c2)c(OC)c1
dose: 12.5 mg/kg/injection, schedule: Q01DX009 (ip), vehicle: DMSO
  T/C: 90 % of control
dose: 25.0 mg/kg/injection, schedule: Q01DX009 (ip), vehicle: DMSO
  T/C: 107 % of control
dose: 50.0 mg/kg/injection, schedule: Q01DX009 (ip), vehicle: DMSO
  T/C: 93 % of control

## O=C(CCl)NC(CO)C(=O)O (configuration not stated)
[15]
  T/C: 91 % of control
[16]
  T/C: 100 % of control
[17]
  T/C: 91 % of control

## c1ccc2c3nc(nc2c1)CCCCCCCN3
[3]
  T/C: 109 % of control
[12]
  T/C: 94 % of control

## CN(C)CCC(=O)O
[18]
  T/C: 100 % of control
[19]
  T/C: 95 % of control
[20]
  T/C: 90 % of control

## Cc1c(Cl)c(Cl)c(NS(=O)(=O)c2ccccc2)c(NS(=O)(=O)c2ccccc2)c1Cl
[10]
  T/C: 100 % of control
[3]
  T/C: 90 % of control
[11]
  T/C: 90 % of control
[12]
  T/C: 104 % of control
[13]
  T/C: 95 % of control
[14]
  T/C: 100 % of control
